The results in this text go back to PubChem BioAssay (NCI).

“And” between values parts separate entries of the source, which are not always exact repeats. Equal values may be shown once.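 96-well plates; 48 h exposure; 5 concentrations. Endpoints by linear interpolation between flanking doses. Not reached: highest tested concentration assigned. GI50 marks 50% less growth. TGI denotes the concentration required for complete inhibition of growth.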 Some results are limits rather than exact numbers.

Holding throughout (experiment): DTP human tumour cell line panel, 48 h
The test system of assay [1] is HOP-62 NSCLC.
The test system of assay [2] is SK-MEL-2 melanoma.
The test system of assay [3] is NCI/ADR-RES ovarian.
Assay [4] deals with UO-31 renal.
The test system of assay [5] is MDA-MB-231 breast.
Assay [6] deals with CCRF-CEM leukemia.
In assay [7] the test system is A549 NSCLC.
Assay [8] deals with MALME-3M melanoma.
The test system of assay [9] is SF-539 CNS.
Assay [10] has as its system MOLT-4 leukemia.

In the case of `COc1cc(/C=N/Nc2ncnc3c2cnn3-c2ccccc2)ccc1O`, the GI50 was 16.9 µM in assay [1]; 5.85 µM in [2]; more than 20.9 µM in assay [3]; 2.34 µM in assay [5]; 4.54 µM in assay [6]; more than 20.5 µM in assay [7]. Besides, the GI50 in assay [8] is more than 25 µM; in assay [9], 8.84 µM; in assay [10], more than 25 µM. Besides, the TGI in assay [1] was more than 25 µM; in assay [2], 20.6 µM; in assay [3] it was more than 25 µM; in [4] it was more than 25 µM; in assay [5] it was more than 25 µM; in assay [6], more than 25 µM. In addition, the TGI in [7], in assay [8], in assay [9] and in [10] was more than 25 µM in each case.

`Cc1cc2c(cc1Cl)S/C(=C/C(=O)O)C(Nc1ccc3ncsc3c1)=NS2(=O)=O`: the GI50 in [1] was 17 µM; in [2] it was more than 29.3 µM; in assay [3] it was more than 18.1 µM; in [4], 14.8 µM; in assay [5] it was 20.9 µM; in assay [6], 7.22 µM. Also, the GI50 in [7] is more than 25 µM; in [8] it was more than 35.3 µM; in assay [9] it was 9.66 µM; in assay [10], 5.5 µM. For the same compound, the TGI in [1] is more than 42.9 µM; in assay [2] it was more than 61.3 µM; in [3], more than 34.7 µM; in assay [4] it was more than 50.7 µM; in assay [5], more than 63.7 µM; in assay [6], more than 53.5 µM. Further, the TGI in [7] was more than 62 µM; in assay [8], more than 55.4 µM; in assay [9], more than 34.6 µM; in assay [10] it was more than 26.8 µM.

As to `Nc1nc([Se])c2ncn(C3OC(CO)C(O)C3O)c2n1` (stereo unspecified), the GI50 was 3.73 µM in assay [1]; 59.8 µM in assay [2]; 5.57 µM in [3]; 24.3 µM in [4]; 2.81 µM in assay [5]; 2.28 µM in assay [6]. For the same compound, the GI50 was 25.1 µM in assay [7], more than 100 µM in assay [8], 19.3 µM in assay [9] and 3.4 µM in assay [10]. In addition, the TGI in [1] is more than 100 µM; in [2], more than 100 µM; in assay [3], more than 100 µM; in assay [4], more than 100 µM; in [5], 69.8 µM; in [6], more than 100 µM. Besides, the TGI in assay [7], in assay [8], in [9] and in [10] was more than 100 µM each time.

Take `O=C(Nc1ccccc1)Nc1ccc2cc3ccc(NC(=O)Nc4ccccc4)cc3nc2c1`: the GI50 in assay [1] is 1.59 µM; in assay [2] it was 1.72 µM; in assay [3] it was 68.7 µM; in assay [4] it was more than 100 µM; in [5], 1.4 µM; in assay [6] it was 0.276 µM. The GI50 in assay [7] was 11.2 µM; in [8], 1.54 µM; in assay [9] it was 1.63 µM; in assay [10] it was 0.559 µM. Further, the TGI was 3.4 µM in assay [1]; 3.24 µM in [2]; more than 100 µM in [3]; more than 100 µM in assay [4]; 2.8 µM in assay [5]; 0.828 µM in [6]. The TGI is more than 100 µM in assay [7], 3.06 µM in assay [8], 3.01 µM in assay [9] and 2.13 µM in assay [10].

For `CCc1ccc(CCC(=O)Nc2ncc(Cc3ccc(Cl)cc3)s2)o1`, the GI50 is 0.623 µM in assay [1]; 0.684 µM in [2]; 0.335 µM in assay [3]; 0.65 µM in assay [4]; 0.699 µM in [5]; 0.352 µM in [6]. In addition, the GI50 in assay [7] was 0.496 µM; in assay [8], 0.466 µM; in [9], 0.245 µM; in [10], 0.53 µM. The TGI in assay [1] was more than 100 µM; in [2], more than 100 µM; in assay [3] it was more than 75.3 µM; in assay [4], more than 100 µM; in assay [5] it was more than 100 µM; in assay [6], more than 100 µM. The TGI in [7] is more than 100 µM; in assay [8], more than 100 µM; in [9], 0.727 µM; in [10] it was more than 100 µM.

With `CC(C)(C)C1CCC2c3c([nH]c4ccccc34)C3C(=O)N(c4ccc(Cl)cc4)C(=O)C3C2C1` (stereo unspecified), the GI50 in assay [1] is more than 100 µM; in assay [3], 51.3 µM and > 10 µM; in assay [4], more than 100 µM; in [5], 56.1 µM and > 10 µM; in assay [7], 67 µM and > 10 µM; in assay [9] it was more than 100 µM. Further, in [10], the GI50 was 23.6 µM and > 10 µM. The TGI in assay [1] was more than 100 µM; in assay [2] it was more than 10 µM; in assay [3], more than 100 µM; in [4], more than 100 µM; in [5], more than 100 µM; in [6], 47.3 µM and > 10 µM. Also, the TGI is more than 100 µM in assay [7]; more than 10 µM in [8]; more than 100 µM in [9]; 50.6 µM and > 10 µM in assay [10].

For `COc1ccc(C/C(=C(\C)c2ccc(OCCN3CCCC3)cc2)c2ccc(OCCN3CCCC3)cc2)cc1`, the GI50 in assay [1] was 2.18 µM; in assay [2], 1.87 µM; in [3], 1.96 µM; in assay [4], 1.56 µM; in [5], 1.73 µM; in assay [6], 1.8 µM. The GI50 in [7] was 1.82 µM; in assay [8], 1.67 µM; in [9], 1.8 µM; in [10] it was 1.94 µM. For the same compound, the TGI stood at 7.02 µM in assay [1]; 3.53 µM in [2]; 3.71 µM in assay [3]; 2.94 µM in [4]; 3.37 µM in assay [5]; 4.51 µM in assay [6]. For the same compound, the TGI in assay [7] was found to be 3.84 µM; in assay [8], 3.26 µM; in assay [9], 3.25 µM; in assay [10], 4.51 µM.

As a reminder, the GI50 is the concentration at which growth is held to half of that of the control. As a reminder, the TGI is the concentration at which net growth stops. Low values mean more potent growth arrest, high ones less potent growth arrest.
